Source: patent US20120053053A1, “PYRIMIDINE DERIVATIVES AND THEIR USE AS HERBICIDES” (SYNGENTA CROP PROTECTION, LLC, priority 2009, published 2012)

Assays:
Type in all cases: in vivo
[1] = system: Alopecurus myosuroides (ALOMY); test: Pre-emergence biological efficacy (percentage damage); details: Alopecurus myosuroides, 312 h, dose 1,000 g/ha, evaluated after 13 days, 100=total damage, 0=no damage
Description: (§1) Seeds of Alopecurus myosuroides (ALOMY), Setaria faberi (SETFA), Echinochloa crus-galli (ECHCG), Solanum nigrum (SOLNI), Amaranthus retoflexus (AMARE) and Ipomea hederaceae (IPOHE) were sown in standard soil in pots. After cultivation for one day under controlled conditions in a glasshouse (at 24/16° C., day/night; 14 hours light; 65% humidity), the plants were sprayed with an aqueous spray solution derived from the formulation of the technical active ingredient in acetone/water (50:50) solution containing 0.5% Tween 20 (polyoxyethylene sorbitan monolaurate, CAS RN 9005-64-5) to give a final dose of 250 or 1000 g/ha of test compound. The test plants were then grown under controlled conditions in the glasshouse (at 24/16° C., day/night; 14 hours light; 65% humidity) and watered twice daily. After 13 days the test was evaluated (100=total damage to plant; 0=no damage to plant).

[2] = system: Amaranthus retoflexus (AMARE); test: as above; details: Amaranthus retroflexus, 312 h, dose 1,000 g/ha, evaluated after 13 days, 100=total damage, 0=no damage
Description: as §1

[3] = system: Echinochloa crus-galli (ECHCG); test: as above; details: Echinochloa crus-galli, 312 h, dose 1,000 g/ha, evaluated after 13 days, 100=total damage, 0=no damage
Description: as §1

[4] = system: Ipomea hederaceae (IPOHE); test: as above; details: Ipomoea hederacea, 312 h, dose 1,000 g/ha, evaluated after 13 days, 100=total damage, 0=no damage
Description: as §1

Setaria faberi (SETFA) [5] = test: as above; details: Setaria faberi, 312 h, dose 1,000 g/ha, evaluated after 13 days, 100=total damage, 0=no damage
Description: as §1

Solanum nigrum (SOLNI) [6] = test: as above; details: Solanum nigrum, 312 h, dose 1,000 g/ha, evaluated after 13 days, 100=total damage, 0=no damage
Description: as §1

[7] = system: Alopecurus myosuroides (ALOMY); test: Post-emergence biological efficacy (percentage damage); details: Alopecurus myosuroides, 312 h, dose 1,000 g/ha, evaluated after 13 days, 100=total damage, 0=no damage
Description: as §1, with “for 8 days” for “for one day”, “grown on” for “grown”, “in a” for “in the”

[8] = system: Amaranthus retoflexus (AMARE); test: as above; details: Amaranthus retroflexus, 312 h, dose 1,000 g/ha, evaluated after 13 days, 100=total damage, 0=no damage
Description: as §1, with “for 8 days” for “for one day”, “grown on” for “grown”, “in a” for “in the”

[9] = system: Echinochloa crus-galli (ECHCG); test: as above; details: Echinochloa crus-galli, 312 h, dose 1,000 g/ha, evaluated after 13 days, 100=total damage, 0=no damage
Description: as §1, with “for 8 days” for “for one day”, “grown on” for “grown”, “in a” for “in the”

[10] = system: Ipomea hederaceae (IPOHE); test: as above; details: Ipomoea hederacea, 312 h, dose 1,000 g/ha, evaluated after 13 days, 100=total damage, 0=no damage
Description: as §1, with “for 8 days” for “for one day”, “grown on” for “grown”, “in a” for “in the”

Setaria faberi (SETFA) [11] = test: as above; details: Setaria faberi, 312 h, dose 1,000 g/ha, evaluated after 13 days, 100=total damage, 0=no damage
Description: as §1, with “for 8 days” for “for one day”, “grown on” for “grown”, “in a” for “in the”

Solanum nigrum (SOLNI) [12] = test: as above; details: Solanum nigrum, 312 h, dose 1,000 g/ha, evaluated after 13 days, 100=total damage, 0=no damage
Description: as §1, with “for 8 days” for “for one day”, “grown on” for “grown”, “in a” for “in the”

| Compound | pest or weed control at 1000 g/ha [1] [%] | pest or weed control at 1000 g/ha [2] [%] | pest or weed control at 1000 g/ha [3] [%] | pest or weed control at 1000 g/ha [4] [%] | pest or weed control at 1000 g/ha (Setaria faberi (SETFA) [5]) [%] | pest or weed control at 1000 g/ha (Solanum nigrum (SOLNI) [6]) [%] | pest or weed control at 1000 g/ha [7] [%] | pest or weed control at 1000 g/ha [8] [%] | pest or weed control at 1000 g/ha [9] [%] | pest or weed control at 1000 g/ha [10] [%] | pest or weed control at 1000 g/ha (Setaria faberi (SETFA) [11]) [%] | pest or weed control at 1000 g/ha (Solanum nigrum (SOLNI) [12]) [%] |
| --- | --- | --- | --- | --- | --- | --- | --- | --- | --- | --- | --- | --- |
| C=Cc1c(N)nc(-c2ccc(Cl)c(N(C)C)c2F)nc1C(=O)OCCOCC [Compound 33-396, 4-Amino-2-(4-chloro-3-dimethylamino-2-fluorophenyl)-5-ethenyl-6-(2-ethoxy-ethoxy)carbonyl-pyrimidine] | 70 | 100 | 90 | 50 | 80 | 90 | 70 | 100 | 100 | 60 | 90 | 90 |
| C=Cc1c(N)nc(-c2ccc(Cl)c(C(F)(F)F)c2)nc1C(=O)OC [Compound 14-61, 4-Amino-2-(4-chloro-3-trifluoromethyl-phenyl)-5-ethenyl-6-methoxycarbonyl-pyrimidine] | 10 | 60 | 20 | 10 | 10 | 40 | 0 | 10 | 0 | 40 | 0 | 80 |
| COC(=O)c1nc(C2CC2)nc(N)c1C#C[Si](C)(C)C [Compound 2-78, 4-amino-2-cyclopropyl-6-methoxycarbonyl-5-(trimethylsilylethynyl)-pyrimidine] | 20 | 90 | 30 | 100 | 10 | 90 | 30 | 100 | 60 | 100 | 60 | 100 |
| C=Cc1c(N)nc(-c2cc(F)c(Cl)c(F)c2)nc1C(=O)OC [Compound 30-61, 4-Amino-2-(4-chloro-3,5-difluorophenyl)-5-ethenyl-6-methoxycarbonyl-pyrimidine] | 0 | 0 | 0 | 0 | 0 | 20 | 0 | 10 | 0 | 10 | 0 | 80 |
| C=Cc1c(N)nc(-c2ccc3c(c2)OCO3)nc1C(=O)OC [Compound 70-61, 4-Amino-5-ethenyl-6-methoxycarbonyl-2-(3,4-methylenedioxy-phenyl)-pyrimidine] | 80 | 100 | 90 | 80 | 70 | 100 | 100 | 100 | 100 | 80 | 40 | 90 |
| C=Cc1c(N)nc(-c2ccc3c(c2)OCCO3)nc1C(=O)OC [Compound 71-61, 4-Amino-5-ethenyl-2-(3,4-ethylenedioxy-phenyl)-6-methoxycarbonyl-pyrimidine] | 10 | 0 | 20 | 0 | 0 | 40 | 0 | 20 | 30 | 40 | 0 | 60 |
